Values quoted from earlier work in patent US7101871B2, “Beta-amino heterocyclic dipeptidyl peptidase inhibitors for the treatment or prevention of diabetes” (Merck & Co., Inc., priority 2002, dated 2006).

Legend:
[1] = tested on: cardiac allograft; conditions: rats; doubled from day 7 to day 14
[2] = tested on: GRF degradation in plasma
[3] = tested on: hematopoiesis; conditions: mouse, cyclophosphamide-induced neutropenia (WO 99/56753)

## CC(C)N1CCC(c2ccccc2)(c2ccccc2)CC1 [Prodipine, Pro-Pro-diphenyl-phosphonate]
[1]
  cardiac allograft survival: 14 day

## CC[C@H](C)[C@H](N)C(=O)N1CCC[C@H]1C(=O)N[C@H](C(=O)O)[C@@H](C)CC [diprotin A]
[2]
  effect on degradation of GRF to GRF[3-44] in plasma: prevented

## CC(C)[C@H](N)C(=O)N1CCC[C@H]1B(O)O [Val-Boro-Pro]
[3]
  effect on hematopoiesis: stimulated hematopoiesis
